From patent publication US10799605B2 (3B PHARMACEUTICALS GMBH, priority 2014, dated 2020)
Like-named read-outs stand apart in the source and are kept apart here.

What was measured:
[1] = test system: GPCRs, ion channels, and transporter proteins; assay: Specificity screening (ExpresSProfile), whole panel; format: binding; conditions: 10^−5 M
Description: The specificity screening was carried out in order to test for unspecific binding of compounds of the present invention. The specificity for NTR1 was tested using a standard battery of assays (“ExpresSProfile”) comprising 55 assays on GPCRs, ion channels, and transporter proteins. This assay was performed by Cerep (Celle l'Evescault, France; Catalog reference P1).
Unspecific binding according to this specificity screening is observed if Inhibition of Control Specific Binding is above 50%.

[2] = target: mu (MOP) (h) (Homo sapiens (Human), UniProt P35372); assay: ExpresSProfile: mu opioid receptor, agonist radioligand; format: binding; conditions: Test Concentration 1.0E−05 M
Chain of mu (MOP) (h) (P35372 whole entry): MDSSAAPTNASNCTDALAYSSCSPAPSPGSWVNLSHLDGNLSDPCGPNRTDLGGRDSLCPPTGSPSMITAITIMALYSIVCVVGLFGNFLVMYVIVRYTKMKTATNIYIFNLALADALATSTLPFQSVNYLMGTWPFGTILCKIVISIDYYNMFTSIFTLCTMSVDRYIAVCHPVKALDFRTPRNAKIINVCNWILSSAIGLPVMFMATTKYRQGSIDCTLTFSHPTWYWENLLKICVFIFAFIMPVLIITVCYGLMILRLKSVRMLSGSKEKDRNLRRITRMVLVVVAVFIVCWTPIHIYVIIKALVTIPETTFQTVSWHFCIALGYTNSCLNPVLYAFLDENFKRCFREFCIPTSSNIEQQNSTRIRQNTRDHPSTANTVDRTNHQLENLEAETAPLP

[3] = target: beta 2 (h) (Homo sapiens (Human), UniProt P07550); assay: ExpresSProfile: beta2 adrenergic receptor, agonist radioligand; format: binding; conditions: Test Concentration 1.0E−05 M
Chain of beta 2 (h) (P07550 whole entry): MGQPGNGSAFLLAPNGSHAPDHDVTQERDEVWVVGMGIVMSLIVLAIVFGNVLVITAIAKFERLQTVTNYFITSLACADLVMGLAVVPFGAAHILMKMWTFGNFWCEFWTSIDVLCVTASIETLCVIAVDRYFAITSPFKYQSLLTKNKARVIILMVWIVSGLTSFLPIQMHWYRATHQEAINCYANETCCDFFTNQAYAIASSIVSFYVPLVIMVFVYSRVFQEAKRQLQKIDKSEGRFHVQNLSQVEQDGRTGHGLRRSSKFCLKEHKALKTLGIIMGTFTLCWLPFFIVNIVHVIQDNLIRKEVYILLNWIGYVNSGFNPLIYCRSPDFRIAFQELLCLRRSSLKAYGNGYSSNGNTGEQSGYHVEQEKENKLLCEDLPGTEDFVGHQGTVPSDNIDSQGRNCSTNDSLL

[4] = target: NTR1 (Homo sapiens (Human), UniProt P30989); assay: Radioligand binding assay NTR1 (example part II); conditions: 0.05 nM 125I-(Tyr3-neurotensin), 60 min at 4° C.; read-out: IC50 [nM] RLB
Chain of NTR1 (P30989 whole entry): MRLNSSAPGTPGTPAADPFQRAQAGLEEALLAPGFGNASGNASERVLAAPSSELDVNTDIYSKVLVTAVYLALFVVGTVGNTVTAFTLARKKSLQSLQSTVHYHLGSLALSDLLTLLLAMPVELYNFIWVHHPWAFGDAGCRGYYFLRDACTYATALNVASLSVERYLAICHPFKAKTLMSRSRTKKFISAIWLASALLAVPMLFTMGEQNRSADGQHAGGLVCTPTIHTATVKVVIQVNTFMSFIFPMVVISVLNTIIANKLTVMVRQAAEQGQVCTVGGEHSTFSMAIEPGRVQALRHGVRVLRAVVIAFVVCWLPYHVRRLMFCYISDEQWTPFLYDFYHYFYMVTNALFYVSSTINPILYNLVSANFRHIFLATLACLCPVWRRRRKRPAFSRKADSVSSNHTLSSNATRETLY
In short: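 Membranes from CHO cells recombinantly expressing human NTR1 incubated with 0.05 nM 125I-(Tyr3-neurotensin) and serially diluted test compounds. Bound radioligand quantified by scintillation counting; displacement expressed as IC50.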

[5] = target: AT1 (h) (Homo sapiens (Human), UniProt P30556); assay: ExpresSProfile: angiotensin receptor 1, antagonist radioligand; format: binding; conditions: Test Concentration 1.0E−05 M
Chain of AT1 (h) (P30556 whole entry): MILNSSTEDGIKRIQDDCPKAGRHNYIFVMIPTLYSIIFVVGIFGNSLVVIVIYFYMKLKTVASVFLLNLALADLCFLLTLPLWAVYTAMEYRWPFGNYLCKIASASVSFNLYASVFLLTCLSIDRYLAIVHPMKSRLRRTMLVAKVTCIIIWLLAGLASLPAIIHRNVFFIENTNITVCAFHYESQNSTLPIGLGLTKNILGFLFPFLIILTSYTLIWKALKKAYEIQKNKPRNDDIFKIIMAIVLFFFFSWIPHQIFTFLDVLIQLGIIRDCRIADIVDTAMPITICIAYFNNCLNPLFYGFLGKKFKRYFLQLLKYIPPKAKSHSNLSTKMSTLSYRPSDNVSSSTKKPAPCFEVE

[6] = target: CCR1 (h) (Homo sapiens (Human), UniProt P32246); assay: ExpresSProfile: C-C chemokine receptor type 1, agonist radioligand; format: binding; conditions: Test Concentration 1.0E−05 M
Chain of CCR1 (h) (P32246 whole entry): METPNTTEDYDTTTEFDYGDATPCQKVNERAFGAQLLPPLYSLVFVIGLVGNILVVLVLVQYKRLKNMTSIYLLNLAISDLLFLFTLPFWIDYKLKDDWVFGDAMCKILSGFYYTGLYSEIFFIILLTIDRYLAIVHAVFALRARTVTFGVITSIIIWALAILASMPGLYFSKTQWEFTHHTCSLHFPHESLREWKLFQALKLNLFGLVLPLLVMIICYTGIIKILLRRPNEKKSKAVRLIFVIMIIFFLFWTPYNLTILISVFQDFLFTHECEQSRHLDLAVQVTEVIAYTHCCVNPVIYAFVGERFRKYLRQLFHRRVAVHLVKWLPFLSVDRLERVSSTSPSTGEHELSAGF

[7] = target: beta 1 (h) (Homo sapiens (Human), UniProt P08588); assay: ExpresSProfile: beta1 adrenergic receptor, agonist radioligand; format: binding; conditions: Test Concentration 1.0E−05 M
Chain of beta 1 (h) (P08588 whole entry): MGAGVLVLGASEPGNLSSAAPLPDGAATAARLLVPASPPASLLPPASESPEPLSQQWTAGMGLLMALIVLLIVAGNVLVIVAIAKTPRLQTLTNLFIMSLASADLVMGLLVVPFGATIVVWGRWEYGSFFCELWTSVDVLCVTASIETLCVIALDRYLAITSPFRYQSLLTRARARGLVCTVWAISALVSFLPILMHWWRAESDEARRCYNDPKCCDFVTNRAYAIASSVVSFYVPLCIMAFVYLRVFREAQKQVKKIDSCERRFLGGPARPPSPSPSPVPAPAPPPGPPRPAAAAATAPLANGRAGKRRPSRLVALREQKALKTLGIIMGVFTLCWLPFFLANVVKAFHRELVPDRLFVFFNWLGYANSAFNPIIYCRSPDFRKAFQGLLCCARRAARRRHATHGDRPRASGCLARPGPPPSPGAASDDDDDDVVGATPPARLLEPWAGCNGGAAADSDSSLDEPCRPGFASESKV

[8] = target: NK2 (h) (Homo sapiens (Human), UniProt P21452); assay: ExpresSProfile: neurokinin receptor 2, agonist radioligand; format: binding; conditions: Test Concentration 1.0E−05 M
Chain of NK2 (h) (P21452 whole entry): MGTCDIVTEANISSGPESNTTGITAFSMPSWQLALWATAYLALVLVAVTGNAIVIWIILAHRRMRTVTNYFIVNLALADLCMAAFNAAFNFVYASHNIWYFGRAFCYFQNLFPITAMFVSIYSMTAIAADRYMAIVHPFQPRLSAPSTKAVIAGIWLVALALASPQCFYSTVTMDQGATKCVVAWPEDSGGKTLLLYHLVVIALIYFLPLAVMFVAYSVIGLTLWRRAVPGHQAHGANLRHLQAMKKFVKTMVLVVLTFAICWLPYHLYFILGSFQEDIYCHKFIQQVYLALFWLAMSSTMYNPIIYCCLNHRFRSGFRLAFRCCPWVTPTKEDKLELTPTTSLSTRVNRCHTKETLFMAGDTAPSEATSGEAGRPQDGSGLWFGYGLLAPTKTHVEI

[9] = target: norepinephrine transporter (h) (Homo sapiens (Human), UniProt P23975); assay: ExpresSProfile: norepinephrine transporter, antagonist radioligand; format: binding; conditions: Test Concentration 1.0E−05 M
Chain of norepinephrine transporter (h) (P23975 whole entry): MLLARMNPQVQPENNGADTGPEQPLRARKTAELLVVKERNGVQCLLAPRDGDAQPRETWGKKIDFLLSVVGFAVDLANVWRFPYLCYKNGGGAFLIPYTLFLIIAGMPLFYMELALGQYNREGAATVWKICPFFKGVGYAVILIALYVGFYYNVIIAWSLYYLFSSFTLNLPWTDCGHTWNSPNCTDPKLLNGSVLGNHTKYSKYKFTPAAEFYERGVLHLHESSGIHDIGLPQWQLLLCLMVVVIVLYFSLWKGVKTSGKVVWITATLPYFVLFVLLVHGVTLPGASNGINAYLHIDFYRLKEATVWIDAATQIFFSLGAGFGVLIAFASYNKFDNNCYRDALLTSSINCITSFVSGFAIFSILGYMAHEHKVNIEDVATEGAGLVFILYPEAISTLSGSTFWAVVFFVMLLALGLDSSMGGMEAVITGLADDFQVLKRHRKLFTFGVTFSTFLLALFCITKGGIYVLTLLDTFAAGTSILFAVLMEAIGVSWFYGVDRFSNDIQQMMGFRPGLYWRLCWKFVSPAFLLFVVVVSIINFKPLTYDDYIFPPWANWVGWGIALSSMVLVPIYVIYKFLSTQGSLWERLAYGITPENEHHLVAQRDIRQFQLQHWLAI

[10] = target: A3 (h) (Homo sapiens (Human), UniProt P0DMS8); assay: ExpresSProfile: adenosine receptor 3, agonist radioligand; format: binding; conditions: Test Concentration 1.0E−05 M
Chain of A3 (h) (P0DMS8 whole entry): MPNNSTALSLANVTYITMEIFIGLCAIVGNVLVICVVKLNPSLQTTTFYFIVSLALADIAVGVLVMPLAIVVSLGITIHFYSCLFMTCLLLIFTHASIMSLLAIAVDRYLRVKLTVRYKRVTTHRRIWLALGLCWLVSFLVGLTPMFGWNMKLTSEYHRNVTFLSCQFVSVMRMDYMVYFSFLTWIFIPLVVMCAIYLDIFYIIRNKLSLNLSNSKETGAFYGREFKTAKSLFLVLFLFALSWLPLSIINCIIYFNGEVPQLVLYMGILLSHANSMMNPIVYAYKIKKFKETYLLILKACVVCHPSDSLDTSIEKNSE

[11] = target: dopamine transporter (h) (Homo sapiens (Human), UniProt Q01959); assay: ExpresSProfile: dopamine transporter, antagonist radioligand; format: binding; conditions: Test Concentration 1.0E−05 M
Chain of dopamine transporter (h) (Q01959 whole entry): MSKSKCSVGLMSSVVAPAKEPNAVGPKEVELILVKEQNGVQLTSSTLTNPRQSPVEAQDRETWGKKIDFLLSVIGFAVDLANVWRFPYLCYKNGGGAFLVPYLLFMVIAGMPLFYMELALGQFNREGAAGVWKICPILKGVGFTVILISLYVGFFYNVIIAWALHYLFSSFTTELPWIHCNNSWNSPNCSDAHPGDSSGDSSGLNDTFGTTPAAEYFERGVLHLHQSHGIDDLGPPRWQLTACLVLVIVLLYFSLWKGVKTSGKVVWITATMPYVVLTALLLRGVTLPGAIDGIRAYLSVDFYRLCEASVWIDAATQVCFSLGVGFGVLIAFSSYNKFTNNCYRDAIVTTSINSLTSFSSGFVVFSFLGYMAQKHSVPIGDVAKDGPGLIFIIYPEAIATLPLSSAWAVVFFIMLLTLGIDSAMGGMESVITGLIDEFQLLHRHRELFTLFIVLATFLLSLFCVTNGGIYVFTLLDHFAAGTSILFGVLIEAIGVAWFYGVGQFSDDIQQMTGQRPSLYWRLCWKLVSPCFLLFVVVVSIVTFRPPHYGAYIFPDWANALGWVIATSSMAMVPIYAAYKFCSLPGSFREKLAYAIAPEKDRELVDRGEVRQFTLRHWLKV

[12] = read-out: % Inhibition of Control Specific Binding
[13] = read-out: % of Control Specific Binding 1st
[14] = read-out: % of Control Specific Binding 2nd
[15] = read-out: % of Control Specific Binding Mean

Structure (SMILES): COc1cccc(OC)c1-c1cc(C(=O)NC2(C(=O)O)C3CC4CC(C3)CC2C4)nn1-c1ccc(C(=O)N(C)CCCN(C)CCCN(C)C(=O)CN2CCN(CC(=O)O)CCN(CC(=O)O)CCN(CC(=O)O)CC2)cc1C(C)C (stereo not drawn) [(IIIa), 2-{[1-{4-[(3-{[3-(DOTA-methyl-amino)-propyl]-methyl-amino}-propyl)-methyl-carbamoyl]-2-isopropyl-phenyl}-5-(2,6-dimethoxy-phenyl)-1H-pyrazole-3-carbonyl]-amino}-adamantane-2-carboxylic acid]
- specificity [1]: highly specific
- inhibition at 10 µM [2, 12]: 0%
- remaining activity at 10 µM [2, 13]: 108%
- remaining activity at 10 µM [2, 14]: 92.6%
- remaining activity at 10 µM [2, 15]: 100%
- inhibition at 10 µM [3, 12]: -2%
- remaining activity at 10 µM [3, 13]: 107%
- remaining activity at 10 µM [3, 14]: 96.5%
- remaining activity at 10 µM [3, 15]: 102%
- IC50 [4]: 2.9 nM
- inhibition at 10 µM [5, 12]: -18%
- remaining activity at 10 µM [5, 13]: 119%
- remaining activity at 10 µM [5, 14]: 117%
- remaining activity at 10 µM [5, 15]: 118%
- inhibition at 10 µM [6, 12]: -6%
- remaining activity at 10 µM [6, 13]: 103%
- remaining activity at 10 µM [6, 14]: 109%
- remaining activity at 10 µM [6, 15]: 106%
- inhibition at 10 µM [7, 12]: 2%
- remaining activity at 10 µM [7, 13]: 89.9%
- remaining activity at 10 µM [7, 14]: 106%
- remaining activity at 10 µM [7, 15]: 98%
- % Inhibition of Control Specific Binding [8]: 66%
- inhibition at 10 µM [8, 12]: 66%
- remaining activity at 10 µM [8, 13]: 34.5%
- remaining activity at 10 µM [8, 14]: 33.7%
- remaining activity at 10 µM [8, 15]: 34.1%
- inhibition at 10 µM [9, 12]: -12%
- remaining activity at 10 µM [9, 13]: 119%
- remaining activity at 10 µM [9, 14]: 105%
- remaining activity at 10 µM [9, 15]: 112%
- inhibition at 10 µM [10, 12]: -41%
- remaining activity at 10 µM [10, 13]: 129%
- remaining activity at 10 µM [10, 14]: 154%
- remaining activity at 10 µM [10, 15]: 141%
- inhibition at 10 µM [11, 12]: -15%
- remaining activity at 10 µM [11, 13]: 124%
- remaining activity at 10 µM [11, 14]: 106%
- remaining activity at 10 µM [11, 15]: 115%
